Series [1] in a line: Stability in murine plasma. As to conditions: 10 μM, 1 h at 37°C. The series is classed as in vitro ADME, mouse. As to the method: (§1) Human and mouse liver microsomes and NADPH regenerating system solutions were purchased from Corning Life Sciences (Tewsbury, MA). Human and mouse K2EDTA-treated plasma was purchased from BioIVT (Westbury, NY). Metabolic studies in liver microsomes (0.125 mg/mL) were conducted in 1x PBS (pH 7.4), NADPH-generating system, and 10 μM RA475 in a final volume of 250 μL. An incubation mixture with or without NADPH-generating system, as well as a neat solution prepared without microsomes and NADPH-generating system was used. RA475 was added at the same concentration level into human and mouse EDTA plasma. All reactions were initiated with the addition of RA475. Incubations were performed in glass tubes maintained at 37°C in a shaker bath. At 0, 30, and 60 min, 10 μL samples were withdrawn from the reaction mixture, and 0.5 mL of acetonitrile containing internal standard was added to each. Samples were vortex-mixed and subjected to centrifugation for 5 min at 1430 x g. A 10 μL aliquot of the supernatant was injected onto the LC-MS/MS instrument for qualitative analysis using a temperature-controlled autosampling device operating at 5°C (See Pharmacokinetic section).

Series [2] is described as follows: Stability in liver microsomes (species not separated in text). The series is classed as in vitro ADME. The method, then: as §1
Series [3] in a line: Human plasma protein binding, equilibrium dialysis. The series is classed as in vitro ADME. To be noted: pH 7.4, dialysis 5 h. As to the method:
(§2) The assay was performed in a multiple-use 96-well dialysis unit (HTD96b dialyzer). Each individual well unit consisted of 2 chambers separated by a vertically aligned dialysis membrane of predetermined pore size (MWCO 12–14 kDa). 120 μL of non-diluted plasma spiked with the compound (1 μM, final DMSO concentration 1%) was added to one chamber, and the same volume of PBS buffer pH 7.4 to the other chamber. The HTD96b dialyzer was covered with adhesive sealing film and incubated 5 h at 37°C while shaking at 100 rpm. For sample preparation, an aliquot of the contents of each chamber was mixed with the same volume of the blank opposite matrix. In order to define non-specific loss of the compound during this assay, a standard solution was created by mixing an aliquot of spiked plasma with blank buffer without dialysis. Two aliquots of the standard solution were incubated at 37°C, shaking at 100 rpm for 5 h (recovery samples). The other two aliquots were immediately diluted with acetonitrile and stored at 4°C until analysis (stability samples). All samples were diluted 5-fold with internal standard diluted in 100% methanol with subsequent plasma proteins sedimentation by centrifuging at 6000 rpm for 5 minutes. Supernatants were analyzed using LC-MS/MS. The percentage of plasma protein bound compound, recovery and stability were calculated using following equations. […]
A general note: Equilibrium dialysis compares concentrations on both sides of a semipermeable membrane.

Series [4] has as its target human serum albumin protein (Homo sapiens, UniProt P02768). Put plainly: Human serum albumin protein binding. The series is classed as in vitro ADME. As to conditions: 1 μM, dialysis 5 h. As to the method: as §2
A short description of series [5]: Single increasing dose tolerability in CD-1 mice, IP. Type of series: in vivo, mouse. To be noted: CD-1, mouse, in vivo; mice, single dose, IP. The method, then:
(§3) RA475 in 25% β-hydroxy propyl cyclodextrin in water was administered at increasing single doses to CD-1 mice (n = 3/group) via intraperitoneal injection.

The test system of a further series is CD-1 mice. The description is as above. Type of series: in vivo, mouse. As to conditions: CD-1 mice, single IP doses at or below 80 mg/Kg. As to the method:
as §3

The subject of series [6] is ID8-Vegf Defb29 cells stably expressing firefly luciferase. Put plainly: Syngeneic ID8-luc ovarian tumor model, IP. Type of series: in vivo. As to conditions: C57BL6 mice, 40 mg/Kg every 3 days IP. The method, then: Female C57BL6 mice were inoculated IP with 3x10^5 ID8-Defb29/VegfA-luc cells in 100 μL PBS. At day 3, mice were imaged for basal level luminescence activity with a Xenogen IVIS 200 after IP injection with luciferin (0.3 mg in 100 μL water). Mice were randomized into groups and treated IP with compounds or vehicle (25% (w/v) β-Hydroxypropylcyclodextrin in water), and imaged again on days indicated.
In addition to direct tumor cell killing, it is possible that RA475 may trigger an immunogenic cell death and thus anti-tumor immunity that could contribute to tumor control. Therefore, we elected to first test the treatment potential of RA475 in an ovarian tumor in a syngeneic mouse model. Since ovarian cancer is shed into, and spread within the peritoneal cavity, female C57BL6 mice were injected IP with ID8-Vegf Defb29 cells stably expressing firefly luciferase (0.5 x 10^6 cells ID8-luc) in PBS (100 μL). After 72 h, mice were imaged for their basal luminescence levels using an IVIS200 imager to confirm the presence of viable tumor cells. Mice with visible luminescence were randomized into two groups and treated with Vehicle (25% β-hydroxy propylcyclodextrin in water, 200 μL, every 3 days, IP) and RA475 (40 mg/Kg, every 3 days, IP). Mice were weighed and, after administration of luciferin (100 μL, 7.8 mg/mL), imaged every week to assess bioluminescence associated with tumor burden. […]
Fig 6 Treatment with RA475 of mice bearing an orthotopic syngeneic ovarian cancer model tumor. Female C57BL6 mice bearing ID8-Luc tumor were monitored for tumor burden by IVIS imaging (A), survival (B) and animal weight (C) after treatment with IP treatment every three days with RA475 (40mg/Kg, n = 8) or vehicle alone (n = 7). […] After 72 h, mice were imaged after administration of luciferin (100 μL, 7.8 mg/mL) for their basal luminescence levels using an IVIS200 imager. Mice with visible luminescence were randomized into two groups and treated with Vehicle alone (25% β-hydroxy propylcyclodextrin in water, 200 μL, every 3 days, IP) or RA475 (40 mg/Kg, every 3 days, IP). […]

Molecules are shown by their SMILES. Bounds are passed on as bounds.

human serum albumin protein, sequence (P02768 25-609): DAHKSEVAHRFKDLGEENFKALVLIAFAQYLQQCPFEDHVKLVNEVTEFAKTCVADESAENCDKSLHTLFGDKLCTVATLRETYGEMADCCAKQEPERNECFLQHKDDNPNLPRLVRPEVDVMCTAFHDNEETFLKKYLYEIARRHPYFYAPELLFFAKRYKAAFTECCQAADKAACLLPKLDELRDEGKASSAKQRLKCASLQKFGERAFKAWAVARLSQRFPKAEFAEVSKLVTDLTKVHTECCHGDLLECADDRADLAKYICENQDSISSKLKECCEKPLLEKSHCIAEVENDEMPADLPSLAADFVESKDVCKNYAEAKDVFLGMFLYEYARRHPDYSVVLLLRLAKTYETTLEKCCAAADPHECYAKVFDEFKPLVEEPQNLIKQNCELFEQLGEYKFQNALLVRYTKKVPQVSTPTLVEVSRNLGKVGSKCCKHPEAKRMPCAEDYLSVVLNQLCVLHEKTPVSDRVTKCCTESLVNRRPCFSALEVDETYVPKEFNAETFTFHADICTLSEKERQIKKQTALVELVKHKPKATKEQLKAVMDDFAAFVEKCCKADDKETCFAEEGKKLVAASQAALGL

The fraction unbound is free concentration divided by total concentration. The term NOAEL denotes the highest dose or exposure tested at which no adverse effect was seen. As for `Cl.Cl.N#Cc1ccc(/C=C2/C(=O)/C(=C/c3ccc(C#N)cc3)C23CCN(C(=N)N)CC3)cc1` [RA475, 1,3-bis((E)-4-cyanobenzylidene)-2-oxo-7-azaspiro[3.5]nonane-7-carboximidamide dihydrochloride], the stability in plasma result in series [1] is given as “did not degrade”. Also, the “present after 1 h in liver microsomes” value in series [2] was determined as 93%. The same compound gave an unbound share (fraction unbound) at 5 h, 1 μM in series [3] of 0.009. Moreover, the “binding to human serum albumin protein” value in series [4] worked out at 93.8%. In addition, the NOAEL in series [5] was greater than 80 mg/kg. Moreover, in the series with CD-1 mice, the “adverse events, including weight loss” value is on record as “No evidence of adverse events”. Besides, in series [6], the survival result is given as “prolonged survival” and the “tumor burden by bioluminescence” value is “tumor control”. For the same compound, the animal weight entry in series [6] (while on treatment) is listed as “continue to gain weight”.

For the origin of these results see article PMC11239005, “Preclinical studies of RA475, a guanidine-substituted spirocyclic candidate RPN13/ADRM1 inhibitor for treatment of ovarian cancer” (PLOS ONE, 2024).
